In patent US20070141687A1, “Increase in stress tolerance with ascorbic acid during fermentation” (priority 2005, published 2007):
Where two headings read alike, the source gives them in different places.

Tests used:
YML007w yeast [1] = assay: Growth (OD660) of yap1-deleted yeast under H2O2 oxidative stress with ascorbic acid in the medium; type: cell-based, S. cerevisiae; conditions: 0.8 or 1.0 mM H2O2; ascorbic acid added at T=0 at 15 mg/L; minimal medium 2% glucose
Method: FIG. 3A. […] Ascorbic acid was added at T=0 at a final concentration of 15 mg/L. BY4742 (▴); YML007w (◯).
FIG. 3B. […] Ascorbic acid was added at T=0 at a final concentration of 15 mg/L. BY4742 (▴); YML007w (◯).

[2] = tested on: GRFc, BY4741, and CEN.PK 113-5D yeast strains; assay: Growth of wild type yeast strains in medium containing lactic acid at pH 3 with added ascorbic acid; conditions: 2xYNB medium, lactic acid 40 g/l, pH3
Method: Ascorbic acid was added to the medium at the concentrations shown.

[3] = tested on: S. cerevisiae strain NRRL Y-30696; assay: Growth and lactic acid production of lactic acid producing yeast with exogenous ascorbic acid; type: cell-based; conditions: minimal glucose medium, 2.78 g/L CaCO3, 0, 0.16, 0.3 or 0.6 g/L ascorbic acid
Method: S. cerevisiae strain NRRL Y-30696 was inoculated in minimal glucose medium and 2.78 g/L CaCO3 or minimal glucose medium with 2.78 g/L CaCO3 and 0.16, 0.3, or 0.6 g/L ascorbic acid. OD660 (open symbols) and lactic acid (closed symbols) were monitored with time. The pH dropped in each case to 2.5 at 67 hours.

YML007w yeast [4] = tested on: YML007w yeast
Excerpt: Yeast strains used were S. cerevisiae GRF18U (Brambilla, L. et al., 1999, FEMS Microb. Lett. 171, 133-140), S. cerevisiae GRFc (Brambilla et al. 1999 FEMS Microb. Lett. 171: 133-140), S. cerevisiae BY4742 (MATα; his3; leu2, lys2; ura3, EuroScarf Accession No. Y10000), S. cerevisiae YML007w (BY4742; MATα; his3; leu2, lys2; ura; YML007w::KanMX4 (the yap1 deleted strain) EuroScarf Accession No. Y10569); CEN.PK 113-5D (MATα ura3-52; cir+) (see, for example, VanDijken et al. (2000) Enzyme Microb. Technol. 26, 706-714); and BY4741 (MATα; his3; leu2; met 15; ura3, Euroscarf Accession No. Y00000), or strains derived from them through transformation with the different developed plasmids. All strains were cultivated in shake flasks in minimal medium (0.67% w/v YNB (Difco Laboratories, Detroit, Mich. #919-15), 2% w/v glucose or mannose, with addition of the appropriate amino acids or adenine or uracil, respectively, to 50 μL-^1) and/or the appropriate antibiotic (G418 or hygromicin to 500 mg/l and 400 mg/l, respectively) under standard conditions (shaking at 30° C.). The initial optical density at 660 nm was about 0.05 for ascorbic acid determination, and 0.1 for the kinetics of the recovery from oxidative stress.
The yeast strains were grown on mineral medium (2% glucose, 0.67% YNB) starting from an OD^660 of 0.1. […]

SMILES	growth sensitivity of YML007w yeast to H2O2 (OD660) (YML007w yeast [1])	dose dependence of the effect of ascorbic acid on growth [2]	effect on growth inhibition by lactic acid (OD660) ([2]; zero or increasing ascorbic acid)	lactic acid production [3]	growth as measured by OD660 ([3]; pH dropped to 2.5 at 67 hours)	growth of YML007w yeast host (YML007w yeast [4]; 0.8 mM hydrogen peroxide in medium)	growth of YML007w yeast host (YML007w yeast [4]; 1 mM hydrogen peroxide in medium)
O=C1O[C@H]([C@@H](O)CO)C(O)=C1O [ascorbic acid, L-ascorbic acid]	can be rescued	dose dependent	negative effects of lactic acid on growth can be overcome	equivalent at each level	increased with increasing ascorbic acid		
OO [hydrogen peroxide]						strongly delayed	completely impaired
